Results published in US20170217946A1, “AMINO-SUBSTITUTED ISOXAZOLES” (Bayer Pharma Aktiengesellschaft, priority 2014, published 2017).

molecular target: T1, CDK2/CycE (Homo sapiens, UniProt P24941); experiment: CDK2/CycE kinase assay (TR-FRET); type: biochemical; details: 10 μM ATP
T1 construct: GST; purchased ProQinase GmbH (Freiburg, Germany); host or cells: insect cells (Sf9)
Excerpt: CDK2/CycE-inhibitory activity of compounds of the present invention was quantified employing the CDK2/CycE TR-FRET assay as described in the following paragraphs.
Recombinant fusion proteins of GST and human CDK2 and of GST and human CycE, expressed in insect cells (Sf9) and purified by Glutathion-Sepharose affinity chromatography, were purchased from ProQinase GmbH (Freiburg, Germany). As substrate for the kinase reaction biotinylated peptide biotin-Ttds-YISPLKSPYKISEG (C-terminus in amid form) was used which can be purchased e.g. form the company JERINI peptide technologies (Berlin, Germany).
For the assay 50 nl of a 100 fold concentrated solution of the test compound in DMSO was pipetted into a black low volume 384 well microtiter plate (Greiner Bio-One, Frickenhausen, Germany), 2 μl of a solution of CDK2/CycE in aqueous assay buffer [50 mM Tris/HCl pH 8.0, 10 mM MgCl2, 1.0 mM dithiothreitol, 0.1 mM sodium ortho-vanadate, 0.01% (v/v) Nonidet-P40 (Sigma)] were added and the mixture was incubated for 15 min at 22° C. to allow pre-binding of the test compounds to the enzyme before the start of the kinase reaction. Then the kinase reaction was started by the addition of 3 μl of a solution of adenosine-tri-phosphate (ATP, 16.7 μM=>final conc. in the 5 μl assay volume is 10 μM) and substrate (1.25 μM=>final conc. in the 5 μl assay volume is 0.75 μM) in assay buffer and the resulting mixture was incubated for a reaction time of 25 min at 22° C. […]
The resulting mixture was incubated 1 h at 22° C. to allow the formation of complex between the phosphorylated biotinylated peptide and the detection reagents. Subsequently the amount of phosphorylated substrate was evaluated by measurement of the resonance energy transfer from the Eu-chelate to the streptavidine-XL. Therefore, the fluorescence emissions at 620 nm and 665 nm after excitation at 350 nm was measured in a TR-FRET reader, e.g. a Rubystar (BMG Labtechnologies, Offenburg, Germany) or a Viewlux (Perkin-Elmer). […]

IC50	Compound
> 20 µM	Cc1noc(Nc2cnc(C(F)(F)F)cn2)c1C(=O)Nc1ccc(OC2CCN(CCC(F)(F)F)CC2)nc1 [Example 1a, 3-Methyl-5-{[5-(trifluoromethyl)pyrazin-2-yl]amino}-N-(6-{[1-(3,3,3-trifluoropropyl)-piperidin-4-yl]oxy}pyridin-3-yl)-1,2-oxazole-4-carboxamide]
> 20 µM	Cc1noc(Nc2cnc(C(=O)NC3CCN(CC(F)F)CC3)cn2)c1C(=O)Nc1ccc(F)c(F)c1 [Example 1b, N-[1-(2,2-Difluoroethyl)piperidin-4-yl]-5-({4-[(3,4-difluorophenyl)carbamoyl]-3-methyl-1,2-oxazol-5-yl}amino)pyrazine-2-carboxamide]
> 20 µM	Cc1noc(Nc2cnc(C(F)(F)F)cn2)c1C(=O)Nc1ccc(F)c(F)c1 [Example 1c, N-(3,4-Difluorophenyl)-3-methyl-5-{[5-(trifluoromethyl)pyrazin-2-yl]amino}-1,2-oxazole-4-carboxamide]
